Measurements taken from a melting point compilation (Tetko et al.; mined from patent text by program, amines drawn as free bases though some values may be those of a salt).

Row | Structure (SMILES) | melting point [°C]
1 | O=[N+]([O-])c1oc2ccc(CCO)cc2c1-c1ccc(CO)cc1 | 135 to 137
2 | Cn1c(COc2ccc(CC3SC(=O)NC3=O)cc2)nc2ccc(Oc3ccc4cccc(NC(=O)Nc5ccc(F)cc5F)c4c3)cc21 (configuration not stated) | 222 to 224
3 | CN(C)c1cc2c(C(F)(F)F)cccc2s1 | 70 to 73
4 | O=C1CN(CCC(O)C2CCCCC2)C(=O)N1 (configuration not stated) | 97 to 99
5 | COc1ccc2c(c1)C(c1ccc(N)cc1)=NN=C(C)C2 | 136 to 138
6 | CCCCCCCCCCCCCCCCCC[N+](=O)[O-] | 47 to 50
7 | Cc1cccc(Cl)c1N1Cc2cnc(Nc3ccccc3)nc2N(c2cccc(CCN)c2)C1=O | 192
8 | c1ccc(COc2ccc(-c3nc(COc4ccc(CCCCn5ccnc5)cc4)co3)cc2)cc1 | 118 to 120
9 | Cc1cc(S(=O)(=O)N2c3cc(F)ccc3-n3cccc3C2C)ccc1O (configuration not stated) | 191 to 193
10 | OCC(CO)SCc1ccc(Cl)cc1 | 70 to 75
11 | Ic1cc(I)cc(Cc2cc(I)cc(I)c2)c1 | 104 to 107
12 | N#Cc1ccc2c(O)c(C(=O)NCCCCN3CCN(C(c4ccccc4)c4ccccc4)CC3)cnc2c1 | 223 to 225
13 | Nc1c(Cl)cc(C(O)CNCCCCCCOCCc2ccc(N3CCOCC3)cc2)cc1Cl (configuration not stated) | 102 to 103
14 | CCSc1nc(=O)[nH]cc1F | 168
15 | CCCCCCCCCCCCCCCCCCOCCOCCOC(=O)NCc1ccccn1 | 61 to 62
16 | Cc1ccc(Oc2nc3ccc(N=C=S)cc3s2)cc1 | 121 to 123
17 | CC(=O)OCC1OC(n2cnc(C#N)n2)C(OC(C)=O)C1OC(C)=O (configuration not stated) | 96 to 97

Row | Structure (SMILES) | melting point [°C]
18 | Cc1cc(-n2cncn2)c2cccc(OCc3c(Cl)ccc(S(=O)(=O)N4CCC[C@H]4C(=O)NCC4CCN(Cc5ccccn5)CC4)c3Cl)c2n1 | 118
19 | Cc1[nH]c(C)c2c1C(C)(C)CC2(C)C#N (configuration not stated) | 130 to 140
20 | CC(Oc1ccc(Cl)c(Cl)c1)c1nnc(N)s1 (configuration not stated) | 136 to 138
21 | Cc1ccc(-c2cccn2-c2ccc(S(C)(=O)=O)cc2)cc1 | 186 to 187
22 | CC(C)(C)c1ccc(C(=O)Nc2cn3cc(Cl)ccc3n2)cc1 | 250 to 251
23 | CNc1cc(N2CCOCC2)nc(N2CCOCC2)n1 | 127 to 128
24 | N#Cc1nn(-c2c(Cl)cc(C(F)(F)F)cc2Cl)c(SCc2ccccc2)c1S(=O)(=O)C(F)(F)F | 117 to 119
25 | CCSc1ccc(-c2c(Cl)ncn2-c2ccc(S(C)(=O)=O)cc2)cc1 | 181 to 185
26 | COc1cc(C(=O)Nc2c(C)cc3cn(CC(F)(F)F)nc3c2C(=O)NC(C)C)n(-c2ncccc2Cl)n1 | 178 to 181
27 | COc1nc(NCCCN2CCOCC2)nc(OC)c1NC(=O)c1ccc(Oc2cncc([Si](C)(C)C)c2)o1 | 80 to 82
28 | CN1CCN(c2ncnc3oc(-c4ccc(N)nc4)c(-c4ccccc4)c23)CC1 | 229 to 231
29 | CN1C[C@H](CN2CCN(C(c3ccccc3)c3ccccc3)CC2)C=C2c3cccc4[nH]cc(c34)C[C@H]21 | > 200
30 | Nc1nc(NCCc2ccccc2OCc2ccccc2)nc2nc(-c3ccco3)nn12 | 151 to 153
31 | CCCCN1C(=O)CSC(=NOC(=O)NC)C1C (configuration not stated) | 118 to 120
32 | COC(=O)c1[nH]c(C)c(C)c1OCCCl | 122 to 123
33 | FC(F)(F)c1ccc2nnc(-c3c(Cl)cccc3Cl)n2c1 | 104 to 105

Further lines, results first:

Row | melting point [°C] | Structure (SMILES)
34 | 220 to 221 | COc1cc(OC)nc(NC(=O)NS(=O)(=O)c2c(Cl)cccc2Cn2cncn2)n1
35 | 254 to 256 | O=c1cc(O)cc(-c2cccc(Cl)c2)o1
36 | 58 | C=COc1ccc(C(=O)c2ccccc2)cc1
37 | 270 | O=C(O)COc1ccc2c(=O)c3ccc(Cl)cc3oc2c1Cl
38 | 244 to 248 | O=C(Nc1nc(-c2ccco2)c(-c2ccncc2)s1)c1ccn(Cc2ccccc2)c(=O)c1
39 | 102 to 104 | CC(=O)C(=Cc1ccc(C=O)c([N+](=O)[O-])c1)C(C)=O
40 | 144 to 146 | COC(=O)c1nc(-c2ccc(Cl)c(OC)c2F)nc(N)c1C(F)CBr (configuration not stated)
41 | 130 to 131 | O=C(CSCc1c[nH]c2ccccc12)N1CC=C(c2cccc(F)c2)CC1
42 | 90 | COc1ccc(Cn2cnc3c(Cl)nc(F)nc32)cc1
43 | 136 to 137 | COc1cc(C=O)ccc1OCc1nc(-c2cccc(OS(C)(=O)=O)c2)oc1C
44 | 105 to 107 | COC(=O)CN(C)C(=O)c1ccc(OC)c2cc(OC)ccc12
45 | 178 to 180 | O=C(Nc1ccccc1)Nc1cccnc1Cl
46 | 107 to 108 | CCOC(=O)c1nc(-c2ccccc2)n(-c2ccc(C(F)(F)F)cc2Cl)n1
47 | 130 to 131 | Clc1cc2c(cc1Cl)C(Cl)Cc1ccccc1S2 (configuration not stated)
48 | 163 to 164 | COc1ccc(C2(O)OC(=O)C(c3cc(C)c4nsnc4c3)=C2Cc2cc(OC)c(OC3CCCCC3)c(OC)c2)cc1F (configuration not stated)
49 | 183 to 184 | COc1ccccc1C1=CC(=O)CCC1CC(=O)O (configuration not stated)
50 | 177 | COC(=O)c1ccc(/C=C/C(=O)NOC2CCCCO2)s1 (configuration not stated)
51 | 46 to 49 | ClCCCOc1ccc2ccccc2c1
52 | 196 to 198 | CCn1c(=O)ccc2cnc(Nc3ccc(OC)c(F)c3)nc21
53 | 162 to 165 | COc1ccc(-c2nc(C)c(C(C)=O)[nH]2)cc1

Row | melting point [°C] | Structure (SMILES)
54 | 100 to 101 | NS(=O)(=O)NCC1CCc2ccccc2O1 (configuration not stated)
55 | 84.5 | Cc1c(F)ncn1CC(=O)c1ccccc1
56 | 126 to 127 | O=C(O)C1c2cc(Br)ccc2OCc2ncccc21 (configuration not stated)
57 | 239 to 241 | COC(=O)c1cccc2c(=O)c3c(I)cccc3[nH]c12
58 | 191 to 192 | CSc1cc2n(c1C(=O)c1ccccc1)CCC2C(=O)O (configuration not stated)
59 | 79 to 86 | CCCCc1oc2ccccc2c1C(=O)N(C)Cc1ccc(-c2ccc(OC(Cc3ccccc3)C(=O)O)c(Br)c2)cc1 (configuration not stated)
60 | 153 to 155 | CCOC(=O)c1c2ccc(CC(=O)NOCC(=O)N3CCCCC3)ccc-2c(C(=O)OCC)c1N
61 | 99 | O=C(NCc1ccccc1-c1ccccc1C(=O)NCCc1ccccn1)Nc1ccccc1
62 | 125 to 126 | COC(=O)c1ccc(CSc2nnc(-c3ccc4c(c3)CCO4)o2)cc1
63 | 175 to 178 | CCOC(=O)CSc1nccc(NCc2ccc(Cl)cc2)n1
64 | 138 to 140 | CC(C)c1ccc(C2(NC(=O)c3ccccc3)C(=O)c3ccccc3C2=O)c(OC(=O)c2ccccc2)c1
65 | 149 to 151 | COc1ccc([C@H]2SC=C(c3ccccc3)N(CCN(C)C)C(=O)[C@H]2OC(C)=O)cc1
66 | 138 to 139 | COc1ccc2c(c1OCC#N)CCC=C2
67 | 229 | CC(C)(C)OC(=O)N1CCC(OCc2ccccc2)C1CC(=O)Cn1cnc2cccnc2c1=O (configuration not stated)
68 | 143 | COc1cc2ncn(CCCCl)c(=O)c2cc1OC
69 | 107 to 108 | O=C1C(c2ccccc2)=C(c2ccccc2)C(=O)N1Cc1cccc(F)c1
70 | 107 to 108 | NC(=O)CCc1ccc(F)cc1F
71 | 177 to 178 | CC(=S)NCC1CN(c2ccc(NC=O)c(F)c2)C(=O)O1 (configuration not stated)
72 | 174 | COc1cc(NC(C)=O)c(Cl)cc1NC(=O)N1CCN(Cc2ccccc2)CC1
